# In publication PMC13576449, “Small-Molecule Activators of PRMT1: Discovery, SAR Analyses, and Proapoptotic Effects in Pancreatic Cancer Cells” (Journal of Medicinal Chemistry, 2026):
# Legend:
# PANC-1 cells = experiment: CaspaseGlo 3/7 apoptosis assay, PANC-1; assay type: cell-based, human; conditions: 72 h
# Experimental: (§1) 6 Effect of small-molecule modulators on gemcitabine-induced apoptosis and tumor growth of PDAC cells. […] After 2 h, gemcitabine (GEM) was added at increasing concentrations (10 and 25 nM) or not (−) for another incubation of 72 h. Subsequently, the luminescence-based caspase3/7 assay was performed. The activity of caspase 3/7 in treated cells was normalized to the activity measured in untreated cells (dark gray bar), which was set to 1 (mean SD, n = 6 for PANC-1 and n = 4 for PaTu8988T; *: p ≤ 0.05, **: p ≤ 0.01, ***: p ≤ 0.001, using the student t-test). […] After 24 h, gemcitabine (GEM, 1 μM) was added (+) or not (−) for another incubation of 48 h. Subsequently, the apoptotic cell fraction was quantified in % by flow cytometry using FITC-labeled Annexin V (AV) and propidium iodide (PI) staining (in B: mean ± SD, n = 6 for PANC-1 and n = 5 for PaTu8988T; **: p ≤ 0.01, ***: p ≤ 0.001, ****: p ≤ 0.0001, using the student t-test). […] Viable cells are AV/PI double-negative (AV–/PI–, lower left quadrant, Q4), early apoptotic cells are AV single-positive (AV+/PI– upper left quadrant, Q1), late apoptotic cells are AV/PI double-positive (AV+/PI+, upper right quadrant, Q2), and necrotic cells are PI single-positive (AV–/PI+, lower right quadrant, Q3). The sum of early and late apoptotic cell numbers ([…] in %) is indicated in red. D-G: The workflow of the PDAC xenograft experiments in mice is depicted in D. PANC-1 cells (2 × 10^6 cells/mouse) were subcutaneously (s.c.) injected in the right flank of female athymic nude mice. Small tumor nodules appeared 6 days post-engraftment. […] Tumor volumes were measured every second day using a digital caliper. […] At the end of the 2 weeks, mice were sacrificed and tumors were dissected (F).
# (§2) For quantification of apoptosis using the CaspaseGlo 3/7 assay (Promega), PANC-1 and PaTu8988T cells were seeded in triplicates in white 96-well plate (5 × 10^3 cells/well) and cultured in the absence or presence of compounds. After 2 h, as soon as the cells had settled, gemcitabine was added or not, and cells were incubated for another 72 h. Subsequently, the caspase3/7 activity was measured using the luminescence-based CaspaseGLO-3/7 assay (Promega). To this end, the CaspaseGlo reagent was subsequently added to the cells at a 1:1 ratio and incubated at room temperature and under agitation for 30 min protected from light. The luminescence measurements were carried out using a microplate reader (Mithras LB 940, Berthold).
# PaTu8988T cells [1] = experiment: CaspaseGlo 3/7 apoptosis assay, PaTu8988T; assay type: cell-based, human; conditions: 72 h
# Experimental: as §1, §2
# PaTu8988T cells [2] = experiment: Annexin V/PI flow cytometry apoptosis assay, PaTu8988T; assay type: cell-based, human; conditions: Homo sapiens, PaTu 8988t, 48 h; read-out: Q4, viable cells (AV–/PI–)
# Experimental: 6 Effect of small-molecule modulators on gemcitabine-induced apoptosis and tumor growth of PDAC cells. […] Subsequently, the luminescence-based caspase3/7 assay was performed. The activity of caspase 3/7 in treated cells was normalized to the activity measured in untreated cells (dark gray bar), which was set to 1 (mean SD, n = 6 for PANC-1 and n = 4 for PaTu8988T; *: p ≤ 0.05, **: p ≤ 0.01, ***: p ≤ 0.001, using the student t-test). […] After 24 h, gemcitabine (GEM, 1 μM) was added (+) or not (−) for another incubation of 48 h. Subsequently, the apoptotic cell fraction was quantified in % by flow cytometry using FITC-labeled Annexin V (AV) and propidium iodide (PI) staining (in B: mean ± SD, n = 6 for PANC-1 and n = 5 for PaTu8988T; **: p ≤ 0.01, ***: p ≤ 0.001, ****: p ≤ 0.0001, using the student t-test). […] Viable cells are AV/PI double-negative (AV–/PI–, lower left quadrant, Q4), early apoptotic cells are AV single-positive (AV+/PI– upper left quadrant, Q1), late apoptotic cells are AV/PI double-positive (AV+/PI+, upper right quadrant, Q2), and necrotic cells are PI single-positive (AV–/PI+, lower right quadrant, Q3). The sum of early and late apoptotic cell numbers (Q2+Q3 in %) is indicated in red. D-G: The workflow of the PDAC xenograft experiments in mice is depicted in D. PANC-1 cells (2 × 10^6 cells/mouse) were subcutaneously (s.c.) injected in the right flank of female athymic nude mice. […] Tumor volumes were measured every second day using a digital caliper. […] At the end of the 2 weeks, mice were sacrificed and tumors were dissected (F).
# For quantification of apoptosis by Fluorescence Activated Cell Sorting (FACS), PANC-1 and PaTu8988T cells were seeded in 6-well plates (250 × 10^3 cells/well) and cultured in the absence or presence of compounds. After 24 h, gemcitabine was added or not for another 48 h. After harvesting and washing, unfixed cells (0.5–1 × 10^6) were incubated with FITC-labeled Annexin V and/or PI (BD Pharmingen) according to the manufacturer’s instructions. All samples were analyzed using a BD FACSCalibur flow cytometer (BD Bioscience). Data were acquired using the CellQuestPro program and analyzed with the FlowJo (FlowJo LLC) software.
# After 24 hours, gemcitabine (GEM, 1 µM) was added (+) or not
# (-) for another incubation of 48 hours. Subsequently, the apoptotic cell fraction was assessed by flow cytometry using FITC-labeled Annexin V (AV) and propidium iodide (PI) staining and quantified in % (mean ± SD, n=3-4; ns: not significant, *: p ≤0.05, **: p ≤0.01, ***: p ≤0.001, ****: p ≤0.0001, using the student t-test).
# PANC-1 xenografts = experiment: PDAC xenograft mouse model, tumor growth; assay type: in vivo; conditions: female athymic nude mice, intraperitoneal, 2 weeks; 150 mg/kg TR-07 daily, 10 mg/kg gemcitabine every second day; n = 5
# [3] = compound 10 μM, after 2 h gemcitabine 10 and 25 nM
# [4] = TR-07 10 μM or gemcitabine 10 and 25 nM
Structure (SMILES),"gemcitabine-induced apoptosis, caspase 3/7 activity, co-treatment (PANC-1 cells; [3])","gemcitabine-induced apoptosis, caspase 3/7 activity, co-treatment (PaTu8988T cells [1]; [3])","apoptosis, caspase 3/7 activity, single agent (PANC-1 cells; [4])","apoptosis, caspase 3/7 activity, single agent (PaTu8988T cells [1]; [4])",viability at 10 µM (PaTu8988T cells [2]) [%],tumor growth of PANC-1 xenografts (PANC-1 xenografts)
"CC(C)Oc1ccc(-c2c[nH]cc2CN(C)CCN)cc1 [MS023, reference compound]",diminished,diminished,–,–,–,–
"Nc1ccn([C@@H]2O[C@H](CO)[C@@H](O)C2(F)F)c(=O)n1 [gemcitabine, reference compound]",–,–,underwent apoptosis in a gemcitabine concentration-dependent manner,underwent apoptosis in a gemcitabine concentration-dependent manner,78.6,significantly reduced the tumor growth compared to the control mice
